Measurements as given in patent US20010025059A1, “Composition and method for treating non-bacterial prostatitis” (priority 2000, published 2001).

Columns and labels:
[1] = test system: non-bacterial prostatitis; assay: Example II: double blind study, 30 patients without positive bacterial cultures localized to the prostatic fluid; assay type: in vivo, human
Description: A double blind study using 30 patients without positive bacterial cultures localized to the prostatic fluid were enrolled in a double blind study. Seventeen of the patients received a composition comprised of quercetin in amount of 500 milligrams, bromelain in an amount of 10 milligrams, and papain in an amount of 10 milligrams as the active ingredients thereof. After a randomized study was completed, an additional fifteen patients were treated in an open label study with […]. […] The mean symptom score improved from 21.0 to 13.1 in the group receiving quercetin, but from 20.2 to 18.8 in the placebo group. This represented an improvement of 35%. In those patients which received only the quercetin, without the papain and bromelain, with obtainable extra prostatic secretions, the white blood cell count in the prostatic fluid decreased from 16.8 to 5.3, versus a decrease from 13.1 to 8.3 in the placebo patients.

[2] = Tests of bioavailability / transmural intestinal absorption; assay type: in vivo; settings: quercetin alone; transmural intestinal absorption relatively low

- bioavailability [2]: does not have a high bioavailability
Structure (SMILES): O=c1c(O)c(-c2ccc(O)c(O)c2)oc2cc(O)cc(O)c12 [quercetin]
- mean symptom score, after treatment ([1]; end of study): 13.1
- improvement of mean symptom score ([1]; human, in vivo): 35%
- white blood cell count in the prostatic fluid, after treatment ([1]; patients with obtainable prostatic secretions, end of study): 5.3
- white blood cell count in the prostatic fluid, before treatment ([1]; patients with obtainable prostatic secretions, starting value): 16.8
- mean symptom score, before treatment ([1]; starting value of the group): 21.0
